Results: patent US12558428B2, “Heterobifunctional compounds and their use in treating disease” (Halda Therapeutics OpCo, Inc., priority 2024, dated 2026)

These compounds were tested on T-Rex 293 cells having increased expression of estrogen receptor alpha protein (assay: Cellular growth inhibition assay, T-Rex 293 cells, (+) doxycycline). Details: T-REx-293, 72 h, Table 7-A; T-Rex 293 cells with doxycycline (increased ERα expression); 72 hours; CellTiter-Glo; read-out: (+) Dox GI50.
Format: cell-based
Method in brief: (§1)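 Viability read-out was CellTiter-Glo 2.0 luminescence after 72 h compound exposure, normalized to zero luminescence and fitted by four-parameter regression to give GI50. Cells were an ERα-inducible T-Rex 293 clone cultured with or without 3 ng/mL doxycycline in charcoal-stripped, phenol red-free medium.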

Cc1sc2c(c1C)C(c1ccc(NCCC3CCCN(CCOc4ccc([C@@H]5c6ccc(O)cc6CC[C@@H]5c5ccccc5)cc4)C3)cc1)=NC(Cc1ncco1)c1nnc(C)n1-2 (stereo partly drawn) [III-45] and Cc1sc2c(c1C)C(c1ccc(NCCCC3CCN(CCOc4ccc([C@@H]5c6ccc(O)cc6CC[C@@H]5c5ccccc5)cc4)CC3)cc1)=NC(Cc1ncco1)c1nnc(C)n1-2 (stereo partly drawn) [III-48] cannot be ordered by GI50: under 50 nM for the first, under 50 nM for the second.

First: Cc1sc2c(c1C)C(c1ccc(N[C@H]3CCN(CCOc4ccc([C@@H]5c6ccc(O)cc6CC[C@@H]5c5ccccc5)cc4)C[C@@H]3F)cc1)=NC(Cc1ncco1)c1nnc(C)n1-2 (stereo partly drawn) [III-46]
Second: Cc1sc2c(c1C)C(c1ccc(N[C@H]3CCCCN(CCOc4ccc([C@@H]5c6ccc(O)cc6CC[C@@H]5c5ccccc5)cc4)C3)cc1)=NC(Cc1ncco1)c1nnc(C)n1-2 (stereo partly drawn) [III-47]
The GI50 of the first is lower: under 50 nM for the first, 50 to 500 nM for the second.

First: Cc1sc2c(c1C)C(c1ccc(NC[C@H]3CC[C@H](CNCCOc4ccc([C@@H]5c6ccc(O)cc6CC[C@@H]5c5ccccc5)cc4)CC3)cc1)=NC(Cc1ncco1)c1nnc(C)n1-2 (stereo partly drawn) [III-49]
Second: Cc1sc2c(c1C)C(c1ccc(N[C@H]3CC[C@@H](NCCOc4ccc([C@@H]5c6ccc(O)cc6CC[C@@H]5c5ccccc5)cc4)CC3)cc1)=NC(Cc1ncco1)c1nnc(C)n1-2 (stereo partly drawn) [III-52]
The GI50 of the first is lower: under 50 nM for the first, 50 to 500 nM for the second.

Cc1sc2c(c1C)C(c1ccc(N3CCN(C4CCN(CCOc5ccc([C@@H]6c7ccc(O)cc7CC[C@@H]6c6ccccc6)cc5)C4)CC3)cc1)=NC(Cc1ncco1)c1nnc(C)n1-2 (stereo partly drawn) [III-50] and Cc1sc2c(c1C)C(c1ccc(NCC3CC4(C3)CN(CCOc3ccc([C@@H]5c6ccc(O)cc6CC[C@@H]5c5ccccc5)cc3)C4)cc1)=NC(Cc1ncco1)c1nnc(C)n1-2 (stereo partly drawn) [III-51] cannot be ordered by GI50: under 50 nM for the first, under 50 nM for the second.

Same assay, conditions: Table 7-A; T-Rex 293 cells with doxycycline (increased ERα expression); 72 hours; CellTiter-Glo; read-out: (+) Dox GI50

Compound Cc1sc2c(c1C)C(c1ccc(NCCN3CCN(CCOc4ccc([C@@H]5c6ccc(O)cc6CC[C@@H]5c5ccccc5)cc4)CC3)cc1)=NC(Cc1ncco1)c1nnc(C)n1-2 (stereo partly drawn) [III-32] has a GI50 of under 50 nM.

Each compound was assayed on T-Rex 293 cells lacking increased expression of estrogen receptor alpha protein (assay: Cellular growth inhibition assay, T-Rex 293 cells, (−) doxycycline). Details: T-REx-293, 72 h, Table 7-A; T-Rex 293 cells without doxycycline (lacking increased ERα expression); 72 hours; CellTiter-Glo; read-out: (−) Dox GI50.
Format: cell-based
Method in brief: as §1

Cc1sc2c(c1C)C(c1ccc(NCCC3CCCN(CCOc4ccc([C@@H]5c6ccc(O)cc6CC[C@@H]5c5ccccc5)cc4)C3)cc1)=NC(Cc1ncco1)c1nnc(C)n1-2 (stereo partly drawn) [III-45] and Cc1sc2c(c1C)C(c1ccc(NCCCC3CCN(CCOc4ccc([C@@H]5c6ccc(O)cc6CC[C@@H]5c5ccccc5)cc4)CC3)cc1)=NC(Cc1ncco1)c1nnc(C)n1-2 (stereo partly drawn) [III-48] fall in the same range of GI50: 50 to 500 nM for the first, 50 to 500 nM for the second.

First: Cc1sc2c(c1C)C(c1ccc(N[C@H]3CCN(CCOc4ccc([C@@H]5c6ccc(O)cc6CC[C@@H]5c5ccccc5)cc4)C[C@@H]3F)cc1)=NC(Cc1ncco1)c1nnc(C)n1-2 (stereo partly drawn) [III-46]
Second: Cc1sc2c(c1C)C(c1ccc(N[C@H]3CCCCN(CCOc4ccc([C@@H]5c6ccc(O)cc6CC[C@@H]5c5ccccc5)cc4)C3)cc1)=NC(Cc1ncco1)c1nnc(C)n1-2 (stereo partly drawn) [III-47]
The GI50 of the first is lower: under 50 nM for the first, 50 to 500 nM for the second.

Cc1sc2c(c1C)C(c1ccc(NC[C@H]3CC[C@H](CNCCOc4ccc([C@@H]5c6ccc(O)cc6CC[C@@H]5c5ccccc5)cc4)CC3)cc1)=NC(Cc1ncco1)c1nnc(C)n1-2 (stereo partly drawn) [III-49] and Cc1sc2c(c1C)C(c1ccc(N[C@H]3CC[C@@H](NCCOc4ccc([C@@H]5c6ccc(O)cc6CC[C@@H]5c5ccccc5)cc4)CC3)cc1)=NC(Cc1ncco1)c1nnc(C)n1-2 (stereo partly drawn) [III-52] fall in the same range of GI50: 50 to 500 nM for the first, 50 to 500 nM for the second.

Cc1sc2c(c1C)C(c1ccc(N3CCN(C4CCN(CCOc5ccc([C@@H]6c7ccc(O)cc7CC[C@@H]6c6ccccc6)cc5)C4)CC3)cc1)=NC(Cc1ncco1)c1nnc(C)n1-2 (stereo partly drawn) [III-50] and Cc1sc2c(c1C)C(c1ccc(NCC3CC4(C3)CN(CCOc3ccc([C@@H]5c6ccc(O)cc6CC[C@@H]5c5ccccc5)cc3)C4)cc1)=NC(Cc1ncco1)c1nnc(C)n1-2 (stereo partly drawn) [III-51] fall in the same range of GI50: 50 to 500 nM for the first, 50 to 500 nM for the second.

Same assay, conditions: Table 7-A; T-Rex 293 cells without doxycycline (lacking increased ERα expression); 72 hours; CellTiter-Glo; read-out: (−) Dox GI50

Cc1sc2c(c1C)C(c1ccc(NCCN3CCN(CCOc4ccc([C@@H]5c6ccc(O)cc6CC[C@@H]5c5ccccc5)cc4)CC3)cc1)=NC(Cc1ncco1)c1nnc(C)n1-2 (stereo partly drawn) [III-32] was tested, and the GI50 was 50 to 500 nM.

What follows are compounds tested on MCF7 cells (ATCC #HTB-22) (assay: Cellular growth inhibition assay, MCF7 cells purchased from ATCC). Details: Homo sapiens, MCF7, 144 h, Table 8-A; MCF7 cells purchased from ATCC; six days; CellTiter-Glo; read-out: GI50.
Format: cell-based
Method in brief: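 MCF7 cells in RPMI 1640 with 10% FBS and 0.2 U/ml insulin, seeded at 1,500 cells/well (ATCC) or 225 cells/well (ECACC). Compounds added 24 h later, then 6 days at 37° C. Viability by CellTiter-Glo 2.0 luminescence. GI50 from four-parameter fit.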

First: Cc1sc2c(c1C)C(c1ccc(NCCC3CCCN(CCOc4ccc([C@@H]5c6ccc(O)cc6CC[C@@H]5c5ccccc5)cc4)C3)cc1)=NC(Cc1ncco1)c1nnc(C)n1-2 (stereo partly drawn) [III-45]
Second: Cc1sc2c(c1C)C(c1ccc(NCCCC3CCN(CCOc4ccc([C@@H]5c6ccc(O)cc6CC[C@@H]5c5ccccc5)cc4)CC3)cc1)=NC(Cc1ncco1)c1nnc(C)n1-2 (stereo partly drawn) [III-48]
The GI50 of the first is higher: 50 to 500 nM for the first, under 50 nM for the second.

First: Cc1sc2c(c1C)C(c1ccc(N[C@H]3CCN(CCOc4ccc([C@@H]5c6ccc(O)cc6CC[C@@H]5c5ccccc5)cc4)C[C@@H]3F)cc1)=NC(Cc1ncco1)c1nnc(C)n1-2 (stereo partly drawn) [III-46]
Second: Cc1sc2c(c1C)C(c1ccc(N[C@H]3CCCCN(CCOc4ccc([C@@H]5c6ccc(O)cc6CC[C@@H]5c5ccccc5)cc4)C3)cc1)=NC(Cc1ncco1)c1nnc(C)n1-2 (stereo partly drawn) [III-47]
The GI50 of the first is lower: under 50 nM for the first, 50 to 500 nM for the second.

First: Cc1sc2c(c1C)C(c1ccc(NC[C@H]3CC[C@H](CNCCOc4ccc([C@@H]5c6ccc(O)cc6CC[C@@H]5c5ccccc5)cc4)CC3)cc1)=NC(Cc1ncco1)c1nnc(C)n1-2 (stereo partly drawn) [III-49]
Second: Cc1sc2c(c1C)C(c1ccc(N[C@H]3CC[C@@H](NCCOc4ccc([C@@H]5c6ccc(O)cc6CC[C@@H]5c5ccccc5)cc4)CC3)cc1)=NC(Cc1ncco1)c1nnc(C)n1-2 (stereo partly drawn) [III-52]
The GI50 of the first is lower: under 50 nM for the first, 50 to 500 nM for the second.

Cc1sc2c(c1C)C(c1ccc(N3CCN(C4CCN(CCOc5ccc([C@@H]6c7ccc(O)cc7CC[C@@H]6c6ccccc6)cc5)C4)CC3)cc1)=NC(Cc1ncco1)c1nnc(C)n1-2 (stereo partly drawn) [III-50] and Cc1sc2c(c1C)C(c1ccc(NCC3CC4(C3)CN(CCOc3ccc([C@@H]5c6ccc(O)cc6CC[C@@H]5c5ccccc5)cc3)C4)cc1)=NC(Cc1ncco1)c1nnc(C)n1-2 (stereo partly drawn) [III-51] cannot be ordered by GI50: under 50 nM for the first, under 50 nM for the second.

Same assay, conditions: Table 8-A; MCF7 cells purchased from ATCC; six days; CellTiter-Glo; read-out: GI50

Work on Cc1sc2c(c1C)C(c1ccc(NCCN3CCN(CCOc4ccc([C@@H]5c6ccc(O)cc6CC[C@@H]5c5ccccc5)cc4)CC3)cc1)=NC(Cc1ncco1)c1nnc(C)n1-2 (stereo partly drawn) [III-32] yielded a GI50 of 50 to 500 nM.
